Earlier results, collected in patent publication EP1854876A2, “Genetically engineered glutaminase and its use in antiviral and anticancer therapy” (ME MEDICAL ENZYMES AG, priority 1992, dated 1994).

Key:
[1] = test system: E. coli asparaginase, ineffective form; conditions: substrate not given
[2] = molecular target: E. coli glutaminase B (Escherichia coli, UniProt P0A6W0); conditions: described as high; substrate not given
[3] = test system: known mammalian glutaminase enzymes; conditions: described as high; substrate not given
[4] = molecular target: Pseudomonas 7A glutaminase-asparaginase (Pseudomonas sp., UniProt P10182); conditions: described as low
Chain of Pseudomonas 7A glutaminase-asparaginase (P10182 whole entry): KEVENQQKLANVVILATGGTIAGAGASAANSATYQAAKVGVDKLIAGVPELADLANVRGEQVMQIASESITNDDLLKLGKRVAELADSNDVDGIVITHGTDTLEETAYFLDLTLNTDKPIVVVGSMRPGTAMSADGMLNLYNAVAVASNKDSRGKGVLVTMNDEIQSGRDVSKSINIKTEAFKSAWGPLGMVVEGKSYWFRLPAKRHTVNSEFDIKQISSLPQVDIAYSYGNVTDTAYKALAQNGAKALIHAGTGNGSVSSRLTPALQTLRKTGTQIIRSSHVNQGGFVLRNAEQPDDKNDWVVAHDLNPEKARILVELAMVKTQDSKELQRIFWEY

[5] = molecular target: E. coli glutaminase A (Escherichia coli, UniProt P77454); conditions: described as high; substrate not given
Chain of E. coli glutaminase A (P77454 whole entry): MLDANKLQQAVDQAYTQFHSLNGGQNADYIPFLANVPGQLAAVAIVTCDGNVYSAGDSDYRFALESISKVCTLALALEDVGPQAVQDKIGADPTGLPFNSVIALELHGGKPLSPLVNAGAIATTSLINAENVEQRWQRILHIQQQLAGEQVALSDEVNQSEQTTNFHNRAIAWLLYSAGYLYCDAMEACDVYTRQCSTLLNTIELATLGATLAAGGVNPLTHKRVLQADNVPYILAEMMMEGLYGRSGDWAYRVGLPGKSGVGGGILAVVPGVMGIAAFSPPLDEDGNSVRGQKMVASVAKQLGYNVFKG

Chain of E. coli glutaminase B (P0A6W0 whole entry): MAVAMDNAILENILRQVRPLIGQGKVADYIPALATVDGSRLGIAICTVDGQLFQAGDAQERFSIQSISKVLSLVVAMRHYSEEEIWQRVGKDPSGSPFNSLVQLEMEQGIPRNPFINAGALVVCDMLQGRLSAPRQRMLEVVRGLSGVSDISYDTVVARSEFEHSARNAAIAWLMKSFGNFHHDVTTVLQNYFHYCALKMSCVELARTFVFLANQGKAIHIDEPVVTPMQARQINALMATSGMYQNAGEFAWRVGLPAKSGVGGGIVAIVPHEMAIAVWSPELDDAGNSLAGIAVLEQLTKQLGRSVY

NC(=O)C[C@H](N)C(=O)O [asparagine]
Km [1]: > 1000 µM

NC(=O)CC[C@H](N)C(=O)O [glutamine]
KM [2]: millimolar range
KM [3]: millimolar range
KM for glutamine [4]: micromolar range
KM [5]: millimolar range
